This data set deals with CYP3A4 (Homo sapiens, UniProt P08684). The data set can be described thus: Inhibition of CYP3A4 at 10 uM by fluorimetry assay in presence of NADP; values are per cent of control.

For orientation: residual activity means the signal under treatment as a percentage of the control signal.

Sequence of CYP3A4 (P08684 whole entry): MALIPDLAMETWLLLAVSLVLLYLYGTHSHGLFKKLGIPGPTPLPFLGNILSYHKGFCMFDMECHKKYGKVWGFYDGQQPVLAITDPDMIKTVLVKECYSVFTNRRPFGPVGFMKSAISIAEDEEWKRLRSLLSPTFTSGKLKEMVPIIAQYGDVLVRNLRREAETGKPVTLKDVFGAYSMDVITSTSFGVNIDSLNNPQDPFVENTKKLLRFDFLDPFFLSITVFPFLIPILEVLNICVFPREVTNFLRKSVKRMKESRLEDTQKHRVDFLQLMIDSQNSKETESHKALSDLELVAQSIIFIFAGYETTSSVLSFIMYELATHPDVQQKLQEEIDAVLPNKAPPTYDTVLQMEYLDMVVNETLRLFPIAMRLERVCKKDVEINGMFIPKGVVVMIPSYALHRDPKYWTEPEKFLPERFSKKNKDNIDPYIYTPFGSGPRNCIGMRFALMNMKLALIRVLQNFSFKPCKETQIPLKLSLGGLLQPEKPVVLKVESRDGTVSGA

In the case of `N[C@@H](CC(=O)N1N=CCC1C(=O)NCc1ccccc1)Cc1cc(F)c(F)cc1F` (stereo not given in full), the residual activity at 10 µM stood at 18.8%.
Next, `N[C@@H](CC(=O)N1N=CCC1C(=O)NCc1ccc(C(=O)O)cc1)Cc1cc(F)c(F)cc1F` (stereo not given in full): 62%.
Next, `CCOC(=O)COc1ccc(NC(=O)C2CC=NN2C(=O)C[C@H](N)Cc2cc(F)c(F)cc2F)cc1` (stereo not given in full): 6.9%; `N[C@@H](CC(=O)N1N=CCC1C(=O)Nc1ccc(OCC(=O)O)cc1)Cc1cc(F)c(F)cc1F` (stereo not given in full): 59.3%.
The same measure for `Nc1ccc(CNC(=O)C2CC=NN2C(=O)C[C@H](N)Cc2cc(F)c(F)cc2F)cc1` (stereo not given in full): 4.5%.

The values above are taken from ChEMBL document CHEMBL1156717, “Synthesis and biological evaluation of pyrazoline analogues with beta-amino acyl group as dipeptidyl peptidase IV inhibitors” (Eur J Med Chem, 2008).
